Measured values taken from paper PMC9813914, “Structural Basis for a Cork-Up Mechanism of the Intra-Molecular Mesaconyl-CoA Transferase” (Biochemistry, 2022).

Molecular target: T1, Mct (mesaconyl-CoA transferase; mesaconyl-C1:C4-CoA CoA transferase) (Chloroflexus aurantiacus, UniProt A9WC36)
T1 construct: intertwined homodimer
T1 sequence (A9WC36 1-409): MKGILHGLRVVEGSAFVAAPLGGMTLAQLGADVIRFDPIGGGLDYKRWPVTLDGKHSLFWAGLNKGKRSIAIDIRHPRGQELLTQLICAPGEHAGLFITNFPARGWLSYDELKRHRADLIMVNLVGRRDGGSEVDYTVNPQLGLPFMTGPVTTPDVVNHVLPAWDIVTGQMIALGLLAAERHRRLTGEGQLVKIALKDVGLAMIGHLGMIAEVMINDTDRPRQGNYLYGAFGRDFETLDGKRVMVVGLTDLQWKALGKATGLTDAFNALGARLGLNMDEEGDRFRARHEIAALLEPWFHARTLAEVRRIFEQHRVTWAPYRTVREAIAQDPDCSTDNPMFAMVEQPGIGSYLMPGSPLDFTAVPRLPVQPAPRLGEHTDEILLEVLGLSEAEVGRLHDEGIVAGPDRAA
Assay: HPLC-MS of succinyl-CoA formation
Assay type: biochemical
Details: alternative CoA acceptor (side activity); co-substrate 1 mM mesaconyl-C4-CoA; 200 mM HEPES/KOH pH 8.0, 55 °C, 6 μM Mct; read-out: apparent KM

O=C(O)CCC(=O)O [succinate]
Km: > 25 mM
